Each structure is given as a SMILES string.

Results on 37 molecules are retold here after ChEMBL document CHEMBL1667744, “Structure--activity relationship studies of 1-(4-chloro-2,5-dimethoxyphenyl)-3-(3-propoxypropyl)thiourea, a non-nucleoside reverse transcriptase inhibitor of human immunodeficiency virus type-1” (Eur J Med Chem, 2011).

One data set relates to Human immunodeficiency virus 1. Put plainly: Antiviral activity against HIV1 pseudovirus infected in human B cell assessed as inhibition of infection. Type of data set: functional, organism-based. The following applies: Human immunodeficiency virus 1, B.
Turning to `CCCOC(=O)CCCNC(=S)Nc1cc(OC)c(Cl)cc1OC`, the IC50 was found to be 1.1 nM.
The same measure, in the same setting: with `CCCOCCCNC(=S)Nc1cc(OC)c(Cl)cc1OC` the figure was 168 nM.

System in the next data set: not listed separately
Nature of the data set: Cytotoxicity against HIV1 pseudovirus infected in human B cells. It is filed as cell-based. The following applies: b cell.
Take `CCCSCCCNC(=O)Nc1cc(OC)c(Cl)cc1OC`: the Activity result is given as “Toxic”.
As for `CCCN(CCCNC(=S)Nc1cc(OC)c(Cl)cc1OC)C(=O)OC(C)(C)C`, the Activity entry is reported as “Toxic”.

The test system of the next data set is Human immunodeficiency virus 1. Put plainly: Antiviral activity against HIV1 pseudovirus infected in human B cell assessed as inhibition of infection at 5 uM after 48 to 72 hrs by flow cytometry. It is filed as functional. The following applies: Human immunodeficiency virus 1, B. On the technique in general: Flow cytometry measures light scatter and fluorescence of single cells or particles in a stream.
As for `CCCCCCCNC(=S)Nc1cc(OCC)c(Cl)cc1OCC`, the inhibition at 5 µM came out at 69%.
Turning to `COc1cc(N=C(S)NCCCO)c(OC)cc1Cl`, the inhibition at 5 µM was determined as 92%.
On the same count and under the same terms, with `COc1cc(NC(=S)NCCC(=O)O)c(OC)cc1Cl` the figure was 91%; with `CCOCCCNC(=S)Nc1cc(OC)c(Cl)cc1OC`, 66%.
Regarding `CCOC(=O)CCNC(=S)Nc1cc(OC)c(Cl)cc1OC`, the inhibition at 5 µM stood at 66%.
The same measure, in the same setting: with `COC(=O)CCNC(=S)Nc1cc(OC)c(Cl)cc1OC` the figure was 56%.
`CCCOCCCNC(=S)Nc1cc(OCC)c(Cl)cc1OCC`: the inhibition at 5 µM is 58%.
Still for that read-out and setting: with `CCCNC(=O)CCCNC(=S)Nc1cc(OC)c(Cl)cc1OC` the figure was 69%.
Same read-out and setting: with `CCCCOC(=O)CCNC(=S)Nc1cc(OC)c(Cl)cc1OC` the figure was 43%.
On to `CCCC(=O)OCCCN/C(=N/c1cc(OC)c(Cl)cc1OC)SC(=O)CCC`, for which the inhibition at 5 µM amounted to 87%.
Same read-out and setting: with `CCCOC(=O)CCNC(=S)Nc1cc(OC)c(Cl)cc1OC` the figure was 66%.
Same read-out and setting: with `CCC[S+]([O-])CCCNC(=S)Nc1cc(OC)c(Cl)cc1OC` (stereo not drawn) the figure was 91%.
Regarding `CCOC(=O)CCCNC(=S)Nc1cc(OC)c(Cl)cc1OC`, the inhibition at 5 µM was found to be 24%.
On the same count and under the same terms, with `COCCCNC(=S)Nc1cc(OC)c(Cl)cc1OC` the figure was 105%; with `CCCNCCCNC(=S)Nc1cc(OC)c(Cl)cc1OC`, 83%; with `CCCOCCNC(=S)Nc1cc(OC)c(Cl)cc1OC`, 46%.
For the molecule `CCOC(=O)CCCNC(=O)Nc1cc(OC)c(Cl)cc1OC`, the inhibition at 5 µM is 65%.
Same read-out and setting: with `CCCSCCCNC(=S)Nc1cc(OC)c(Cl)cc1OC` the figure was 24%.
On the same count and under the same terms, with `CCCCCCNC(=S)Nc1cc(OC)c(Cl)cc1OC` the figure was 87%; with `CCCCCCCNC(=O)Nc1cc(OC)c(Cl)cc1OC`, 89%; with `CCCOC(=O)CCCNC(=S)Nc1cc(OC)c(Cl)cc1OC`, 17%.
On the same count and under the same terms, with `COC(=O)CCCNC(=S)Nc1cc(OC)c(Cl)cc1OC` the figure was 73%; with `COc1cc(NC(=S)NCCCOC(C)=O)c(OC)cc1Cl`, 123%; with `CCCOCCCNC(=S)Nc1cc(OCCC)c(Cl)cc1OCCC`, 107%.
As for `COc1cc(NC(=S)N2CCCC2=O)c(OC)cc1Cl`, the inhibition at 5 µM stood at 104%.
Same read-out and setting: with `CCCC(=O)OCCCNC(=S)Nc1cc(OC)c(Cl)cc1OC` the figure was 65%; with `CCCCCCCNC(=S)Nc1cc(OC)c(Cl)cc1OC`, 87%.
On the same count and under the same terms, with `CCCSC(=O)CCCNC(=S)Nc1cc(OC)c(Cl)cc1OC` the figure was 79%; with `CCCCCCNC(=S)Nc1cc(OCC)c(Cl)cc1OCC`, 107%; with `CCCOCCCNC(=S)Nc1cc(OC)c([N+](=O)[O-])cc1OC`, 107%.
The same measure, in the same setting: with `CCC(=O)OCCCNC(=S)Nc1cc(OC)c(Cl)cc1OC` the figure was 86%.
As for `COC(=O)CCCNC(=O)Nc1cc(OC)c(Cl)cc1OC`, the inhibition at 5 µM worked out at 87%.
On the same count and under the same terms, with `CCCOCCCNC(=O)Nc1cc(OC)c(Cl)cc1OC` the figure was 47%; with `CCCCOC(=O)CCCNC(=S)Nc1cc(OC)c(Cl)cc1OC`, 29%.

As usually defined, the IC50 is the concentration at which inhibition is half-maximal. As usually defined, the inhibition is the change of the read-out against control, counted positive when it falls.
